BigSolDB 2.1

C=CC(=O)NCO
Conditions	solubility (mole fraction)
in acetonitrile, 279.15 K	0.0244
in acetonitrile, 282.05 K	0.0276
in acetonitrile, 288.15 K	0.0341
in acetonitrile, 292.75 K	0.041
in acetonitrile, 298.15 K	0.0499
in acetonitrile, 304.05 K	0.0614
in acetonitrile, 308.55 K	0.0716
in chloroform, 279.65 K	0.0011
in chloroform, 282.35 K	0.0013
in chloroform, 286.05 K	0.0015
in chloroform, 289.85 K	0.0019
in chloroform, 294.45 K	0.0023
in chloroform, 299.15 K	0.0029
in chloroform, 303.25 K	0.0035
in dichloromethane, 277.55 K	0.0018
in dichloromethane, 280.35 K	0.0019
in dichloromethane, 282.95 K	0.0021
in dichloromethane, 285.55 K	0.0023
in dichloromethane, 288.15 K	0.0025
in dichloromethane, 291.75 K	0.0028
in ethyl acetate, 278.55 K	0.0109
in ethyl acetate, 281.85 K	0.0127
in ethyl acetate, 285.05 K	0.0146
in ethyl acetate, 289.15 K	0.0176
in ethyl acetate, 296.95 K	0.0248
in ethyl acetate, 300.95 K	0.0294
in ethyl acetate, 305.05 K	0.0351
in furan, 278.55 K	0.0445
in furan, 282.05 K	0.0515
in furan, 284.45 K	0.0574
in furan, 288.25 K	0.0683
in furan, 291.45 K	0.0789
in furan, 294.85 K	0.0919
in furan, 297.25 K	0.102
in n-butyl acetate, 278.05 K	0.0037
in n-butyl acetate, 281.15 K	0.0045
in n-butyl acetate, 284.35 K	0.0055
in n-butyl acetate, 288.95 K	0.0073
in n-butyl acetate, 292.05 K	0.0087
in n-butyl acetate, 295.35 K	0.0105
in n-butyl acetate, 301.45 K	0.0148
in pyridine, 278.55 K	0.232
in pyridine, 281.35 K	0.245
in pyridine, 286.95 K	0.272
in pyridine, 292.25 K	0.303
in pyridine, 297.95 K	0.339
in pyridine, 302.15 K	0.367
in pyridine, 306.25 K	0.401
in toluene, 279.75 K	0.0004
in toluene, 284.35 K	0.0006
in toluene, 287.95 K	0.0008
in toluene, 291.55 K	0.0009
in toluene, 294.95 K	0.0011
in toluene, 298.55 K	0.0014
in toluene, 305.35 K	0.002
